Target: T1, GLP-1 Receptor (Homo sapiens, UniProt P43220)
T1 construct: host or cells: HEK293/GLP1R/CRE-LUC (HEK293/CRE-Luc stably expressing GLP-1R)
Assay: GLP-1R agonist cAMP stimulation assay (HEK293/GLP1R/CRE-LUC cells, HTRF cAMP dynamic 2 kit)
Format: cell-based
Conditions: HEK293/CRE-Luc cell line (HDB), 30 min incubation, read-out: GLP1R cAMP Stimulation DR: EC50 (nM) [Species: Human, Assay Cell Line: HDB]
Procedure: Activation of GLP-1 receptor is known to stimulate cyclic AMP (cAMP) production in cells which indicates primary coupling to the Gαs subunit of the G protein heterotrimeric complex.
To optimize functional activity directed toward Gαs coupling, a HEK293/CRE-Luc cell line developed by HDB stably expressing the GLP-1 Receptor was used. 200×concentration of compound working solutions were prepared (Agilent Technologies Bravo) with ½ log serial dilution in 384-well Echo LDV plate (Labcyte, Cat #LP-0200). 50 nL/well 200×concentration of compound working solutions were moved to 384-well white low volume plate (Greiner, Cat #784075) using Labcyte ECHO550. 1×10^5 cells/mL HEK293/GLP1R/CRE-LUC(HD Biosciences) cell suspensions prepared with assay buffer[DPBS containing 0.5 mM IBMX (Sigma, Cat #15879) and 0.1% BSA (GENVIEW, Cat #FA016-100g)], 10 uL cell suspensions were added to each well of previous generated assay plate which already contains 50n1 compound at 200× concentration using ThermoFisher Multidrop Combi (1000 cells/well). Seal the plate and incubate at 37° C. with 5% CO2 for 30 min.
After incubation the cAMP assay signal was generated using cAMP dynamic 2 Kit (Cisbio). 5 μL cAMP-d2 working solution was added to each well, followed with 5 μL Anti-cAMP antibody-cryptate working solution added to each well using ThermoFisher Multidrop Combi. Incubate at room temperature for 1 hour protected from light. Read the fluorescence at 665 and 615 nm with Reader PerkinElmer EnVision. % Activity=100%×(mean RLU of test sample−mean RLU of vehicle control)/(mean RLU of MAX control−mean RLU of vehicle control))

T1 sequence (P43220 24-463): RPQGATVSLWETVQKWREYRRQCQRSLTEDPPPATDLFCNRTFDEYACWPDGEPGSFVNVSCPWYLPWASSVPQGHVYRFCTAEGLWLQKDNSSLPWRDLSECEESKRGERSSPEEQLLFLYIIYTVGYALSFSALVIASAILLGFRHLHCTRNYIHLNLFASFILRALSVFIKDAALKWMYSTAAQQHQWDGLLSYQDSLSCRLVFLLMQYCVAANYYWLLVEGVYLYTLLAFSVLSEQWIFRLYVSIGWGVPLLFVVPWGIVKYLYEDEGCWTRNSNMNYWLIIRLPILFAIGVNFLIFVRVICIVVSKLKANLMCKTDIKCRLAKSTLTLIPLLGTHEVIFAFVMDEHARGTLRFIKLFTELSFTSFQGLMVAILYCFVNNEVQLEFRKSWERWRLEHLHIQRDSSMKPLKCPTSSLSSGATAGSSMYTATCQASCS

Row | Structure (SMILES) | EC50 [nM]
1 | CCP(=O)(CC)c1ccc(-n2ccn(-c3c(-c4cc(C)c(F)c(C)c4)nn4c3C(C)N(C(=O)c3cc5cc(N6CCOCC6)ccc5n3[C@@]3(c5noc(=O)[nH]5)C[C@@H]3C)CC4)c2=O)cc1NC (single isomer, unassigned) [Compound 114a] | 0.068
2 | Cc1cc(-c2nn3c(c2-n2ccn(-c4ccc5c(cnn5C)c4F)c2=O)C(C)N(C(=O)c2cc4cc(C5CCOCC5)ccc4n2[C@@]2(c4noc(=O)[nH]4)C[C@@H]2C)CC3)cc(C)c1F (single isomer, unassigned) [Compound 110a] | 0.13
3 | CCP(=O)(CC)c1ccc(-n2ccn(-c3c(-c4cc(C)c(F)c(C)c4)nn4c3C(C)N(C(=O)c3cc5cc(C6CCOCC6)ccc5n3C3(c5noc(=O)[nH]5)CC3)CC4)c2=O)cc1NC (stereo not shown) [Compound 104, 3-(1-(2-(3-(3-(4-(diethylphosphoryl)-3-(methylamino)phenyl)-2-oxo-2,3-dihydro-1H-imidazol-1-yl)-2-(4-fluoro-3,5-dimethylphenyl)-4-methyl-4,5,6,7-tetrahydropyrazolo[1,5-a]pyrazine-5-carbonyl)-5-(tetrahydro-2H-pyran-4-yl)-1H-indol-1-yl)cyclopropyl)-1,2,4-oxadiazol-5(4H)-one] | 0.18
4 | Cc1cc(-c2nn3c(c2-n2ccn(-c4ccc5c(cnn5C)c4)c2=O)CN(C(=O)c2cc4cc(C5CCOCC5)ccc4n2C2(c4noc(=O)[nH]4)CCC2)CC3)cc(C)c1F [Compound 102, 3-(1-(2-(2-(4-fluoro-3,5-dimethylphenyl)-3-(3-(1-methyl-1H-indazol-5-yl)-2-oxo-2,3-dihydro-1H-imidazol-1-yl)-4,5,6,7-tetrahydropyrazolo[1,5-a]pyrazine-5-carbonyl)-5-(tetrahydro-2H-pyran-4-yl)-1H-indol-1-yl)cyclobutyl)-1,2,4-oxadiazol-5(4H)-one] | 3300
5 | CCP(=O)(CC)c1ccc(-n2ccn(-c3c(-c4cc(C)c(F)c(C)c4)nn4c3C(C)N(C(=O)c3cc5cc(C6CCC(F)(F)CC6)ccc5n3[C@@]3(c5noc(=O)[nH]5)C[C@@H]3C)CC4)c2=O)cc1NC (single isomer, unassigned) [Compound 116a] | 0.42
6 | Cc1cc(-c2nn3c(c2-n2ccn(-c4ccc5c(cnn5C)c4)c2=O)CN(C(=O)c2cc4cc(C5CCOCC5)ccc4n2[C@@]2(c4noc(=O)[nH]4)C[C@@H]2C)CC3)cc(C)c1F [Compound 105a, 3-((1S,2S)-1-(2-(2-(4-fluoro-3,5-dimethylphenyl)-3-(3-(1-methyl-1H-indazol-5-yl)-2-oxo-2,3-dihydro-1H-imidazol-1-yl)-4,5,6,7-tetrahydropyrazolo[1,5-a]pyrazine-5-carbonyl)-5-(tetrahydro-2H-pyran-4-yl)-1H-indol-1-yl)-2-methylcyclopropyl)-1,2,4-oxadiazol-5(4H)-one] | 1.86
7 | Cc1cc(-c2nn3c(c2-n2ccn(-c4ccc5c(cnn5C)c4)c2=O)C(C)N(C(=O)c2cc4cc(C5CCOCC5)ccc4n2C2(c4noc(=O)[nH]4)CC2)CC3)cc(C)c1F (stereo not shown) [Compound 103, 3-(1-(2-(2-(4-fluoro-3,5-dimethylphenyl)-4-methyl-3-(3-(1-methyl-1H-indazol-5-yl)-2-oxo-2,3-dihydro-1H-imidazol-1-yl)-4,5,6,7-tetrahydropyrazolo[1,5-a]pyrazine-5-carbonyl)-5-(tetrahydro-2H-pyran-4-yl)-1H-indol-1-yl)cyclopropyl)-1,2,4-oxadiazol-5(4H)-one] | 0.29
8 | CCP(=O)(CC)c1ccc(-n2ccn(-c3c(-c4cc(C)c(F)c(C)c4)nn4c3C(C)N(C(=O)c3cc5cc(C6CCOCC6)ccc5n3[C@@]3(c5noc(=O)[nH]5)C[C@@H]3C)CC4)c2=O)cc1NC (mixture of isomers) [Compound 108a, 3-((1S,2S)-1-(2-(3-(3-(4-(diethylphosphoryl)-3-(methylamino)phenyl)-2-oxo-2,3-dihydro-1H-imidazol-1-yl)-2-(4-fluoro-3,5-dimethylphenyl)-4-methyl-4,5,6,7-tetrahydropyrazolo[1,5-a]pyrazine-5-carbonyl)-5-(tetrahydro-2H-pyran-4-yl)-1H-indol-1-yl)-2-methylcyclopropyl)-1,2,4-oxadiazol-5(4H)-one] | 0.1
9 | CCP(=O)(CC)c1ccc(-n2ccn(-c3c(-c4cc(C)c(F)c(C)c4)nn4c3C(C)N(C(=O)c3cc5cc(C6CCOCC6)ccc5n3[C@@]3(c5noc(=O)[nH]5)C[C@@H]3C)CC4)c2=O)cc1NC (single isomer, unassigned) [Compound 112a] | 42
10 | CCP(=O)(CC)c1ccc(-n2ccn(-c3c(-c4cc(C)c(F)c(C)c4)nn4c3C(C)N(C(=O)c3cc5cc(C6CCOCC6)ccc5n3[C@@]3(c5noc(=O)[nH]5)C[C@@H]3C)CC4)c2=O)cc1NC (single isomer, unassigned) [Compound 111a] | 0.042
11 | CCP(=O)(CC)c1ccc(-n2ccn(-c3c(-c4cc(C)c(F)c(C)c4)nn4c3C(C)N(C(=O)c3cc5cc(N6CCOC(C)(C)C6)ccc5n3[C@@]3(c5noc(=O)[nH]5)C[C@@H]3C)CC4)c2=O)cc1NC (single isomer, unassigned) [Compound 115a] | 0.15
12 | Cc1cc(-c2nn3c(c2-n2ccn(-c4ccc5c(cnn5C)c4)c2=O)CN(C(=O)c2cc4cc(C5CCOCC5)ccc4n2C2(c4noc(=O)[nH]4)CC2)CC3)cc(C)c1F [Compound 101, 3-(1-(2-(2-(4-fluoro-3,5-dimethylphenyl)-3-(3-(1-methyl-1H-indazol-5-yl)-2-oxo-2,3-dihydro-1H-imidazol-1-yl)-4,5,6,7-tetrahydropyrazolo[1,5-a]pyrazine-5-carbonyl)-5-(tetrahydro-2H-pyran-4-yl)-1H-indol-1-yl)cyclopropyl)-1,2,4-oxadiazol-5(4H)-one] | 3.41
13 | Cc1cc(-c2nn3c(c2-n2ccn(-c4ccc5c(cnn5C)c4F)c2=O)C(C)N(C(=O)c2cc4cc([C@H]5CCOC(C)(C)C5)ccc4n2[C@@]2(c4noc(=O)[nH]4)C[C@@H]2C)CC3)cc(C)c1F (single isomer, unassigned) [Compound 117a] | 0.07
14 | Cc1cc(-c2nn3c(c2-n2ccn(-c4ccc5c(cnn5C)c4)c2=O)CN(C(=O)c2cc4cc(C5CCOCC5)ccc4n2[C@@]2(C(=O)O)C[C@@H]2C)CC3)cc(C)c1F [Compound 106a, (1S,2S)-1-(2-(2-(4-fluoro-3,5-dimethylphenyl)-3-(3-(1-methyl-1H-indazol-5-yl)-2-oxo-2,3-dihydro-1H-imidazol-1-yl)-4,5,6,7-tetrahydropyrazolo[1,5-a]pyrazine-5-carbonyl)-5-(tetrahydro-2H-pyran-4-yl)-1H-indol-1-yl)-2-methylcyclopropanecarboxylic acid] | 113
15 | Cc1cc(-c2nn3c(c2-n2ccn(-c4ccc5c(cnn5C)c4F)c2=O)C(C)N(C(=O)c2cc4cc(C5CCOCC5)ccc4n2[C@@]2(c4noc(=O)[nH]4)C[C@@H]2C)CC3)cc(C)c1F (stereo partly drawn) [Compound 109a, 3-((1S,2S)-1-(2-(3-(3-(4-fluoro-1-methyl-1H-indazol-5-yl)-2-oxo-2,3-dihydro-1H-imidazol-1-yl)-2-(4-fluoro-3,5-dimethylphenyl)-4-methyl-4,5,6,7-tetrahydropyrazolo[1,5-a]pyrazine-5-carbonyl)-5-(tetrahydro-2H-pyran-4-yl)-1H-indol-1-yl)-2-methylcyclopropyl)-1,2,4-oxadiazol-5(4H)-one] | 0.18
16 | CCP(=O)(CC)c1ccc(-n2ccn(-c3c(-c4cc(C)c(F)c(C)c4)nn4c3C(C)N(C(=O)c3cc5cc([C@H]6CCOC(C)(C)C6)ccc5n3[C@@]3(c5noc(=O)[nH]5)C[C@@H]3C)CC4)c2=O)cc1NC (single isomer, unassigned) [Compound 113a] | 0.17

Same assay, conditions: HEK293/CRE-Luc cell line (HDB), 30 min incubation, read-out: GLP1R cAMP Stimulation DR: pEC50 (M) [Species: Human, Assay Cell Line: HDB] (converted)

Row | Structure (SMILES) | EC50 [nM]
17 | Cc1cc(-c2nn3c(c2-n2ccn(-c4ccc5c(cnn5C)c4)c2=O)CN(C(=O)c2cc4cc(C5CCOCC5)ccc4n2C2(c4noc(=O)[nH]4)CCC2)CC3)cc(C)c1F [Compound 102, 3-(1-(2-(2-(4-fluoro-3,5-dimethylphenyl)-3-(3-(1-methyl-1H-indazol-5-yl)-2-oxo-2,3-dihydro-1H-imidazol-1-yl)-4,5,6,7-tetrahydropyrazolo[1,5-a]pyrazine-5-carbonyl)-5-(tetrahydro-2H-pyran-4-yl)-1H-indol-1-yl)cyclobutyl)-1,2,4-oxadiazol-5(4H)-one] | 2190
18 | CNc1cc(-n2ccn(-c3c(-c4cc(C)c(F)c(C)c4)nn4c3C(C)N(C(=O)c3cc5cc(C6CCOCC6)ccc5n3[C@@]3(c5noc(=O)[nH]5)C[C@@H]3C)CC4)c2=O)ccc1P(C)(C)=O (single isomer, unassigned) [Compound 118a] | 0.0316
19 | Cc1cc(-c2nn3c(c2-n2ccn(-c4ccc5c(cnn5C)c4)c2=O)CN(C(=O)c2cc4cc(C5CCOCC5)ccc4n2C2(c4noc(=O)[nH]4)CC2)CC3)cc(C)c1F [Compound 101, 3-(1-(2-(2-(4-fluoro-3,5-dimethylphenyl)-3-(3-(1-methyl-1H-indazol-5-yl)-2-oxo-2,3-dihydro-1H-imidazol-1-yl)-4,5,6,7-tetrahydropyrazolo[1,5-a]pyrazine-5-carbonyl)-5-(tetrahydro-2H-pyran-4-yl)-1H-indol-1-yl)cyclopropyl)-1,2,4-oxadiazol-5(4H)-one] | 3.31

From patent publication US12595264B2, “Heterocyclic GLP-1 agonists” (Gasherbrum Bio, Inc., priority 2020, dated 2026)
